System: RAW264.7
Assay: Inhibition of NFkappaB in LPS-challenged mouse RAW264.7 cells assessed as ratio of NFkappaB transcriptional activity to thymidine kinase transcriptional activity at 100 uM incubated for 30 mins prior to LPS-challenge measured after 6 hrs by dual luciferase reporter gene assay (reference value: 5.18+/-0.98)
Type: cell-based

For `COC1=C[C@@H]2[C@@H]3Cc4ccc(OC)c(OCc5cn(Cc6cccc(Br)c6)nn5)c4[C@]2(CCN3C)CC1=O`, the Ratio was 2.46.

Compound `COC1=C[C@@H]2[C@@H]3Cc4ccc(OC)c(OCc5cn(Cc6cccc(F)c6)nn5)c4[C@]2(CCN3C)CC1=O` has a Ratio of 3.04.

In the case of `COC1=C[C@@H]2[C@@H]3Cc4ccc(OC)c(OCc5cn(Cc6ccccc6C)nn5)c4[C@]2(CCN3C)CC1=O`, the Ratio was 3.

With `COC1=C[C@@H]2[C@@H]3Cc4ccc(OC)c(OCc5cn(Cc6cccc(Cl)c6)nn5)c4[C@]2(CCN3C)CC1=O` the Ratio was 2.88.

`COC1=C[C@@H]2[C@@H]3Cc4ccc(OC)c(OCc5ccc(OC)cc5)c4[C@]2(CCN3C)CC1=O` showed a Ratio of 4.85.

`COC1=C[C@@H]2[C@@H]3Cc4ccc(OC)c(OCc5ccc(C)cc5)c4[C@]2(CCN3C)CC1=O` showed a Ratio of 5.24.

With `COC1=C[C@@H]2[C@@H]3Cc4ccc(OC)c(OCc5cn(Cc6ccc(C)cc6)nn5)c4[C@]2(CCN3C)CC1=O` the Ratio was 3.37.

Work on `COC1=C[C@@H]2[C@@H]3Cc4ccc(OC)c(OCc5ccccc5C#N)c4[C@]2(CCN3C)CC1=O` yielded a Ratio of 5.09.

`COC1=C[C@@H]2[C@@H]3Cc4ccc(OC)c(OCc5cn(Cc6ccc(C(C)(C)C)cc6)nn5)c4[C@]2(CCN3C)CC1=O` was tested, and the Ratio was 3.26.

`COC1=C[C@@H]2[C@@H]3Cc4ccc(OC)c(O)c4[C@]2(CCN3C)CC1=O` showed a Ratio of 4.41.

`COC1=C[C@@H]2[C@@H]3Cc4ccc(OC)c(OCc5cn(Cc6ccc(C#N)cc6)nn5)c4[C@]2(CCN3C)CC1=O` was tested, and the Ratio was 3.61.

In the case of `COC1=C[C@@H]2[C@@H]3Cc4ccc(OC)c(OCc5ccccc5C)c4[C@]2(CCN3C)CC1=O`, the Ratio was 4.91.

Compound `COC1=C[C@@H]2[C@@H]3Cc4ccc(OC)c(OCc5cn(Cc6cccc(C)c6)nn5)c4[C@]2(CCN3C)CC1=O` has a Ratio of 2.98.

With `COC1=C[C@@H]2[C@@H]3Cc4ccc(OC)c(OCc5ccccc5F)c4[C@]2(CCN3C)CC1=O` the Ratio was 4.71.

In the case of `COC1=C[C@@H]2[C@@H]3Cc4ccc(OC)c(OCc5cccc(F)c5)c4[C@]2(CCN3C)CC1=O`, the Ratio was 4.53.

In the case of `COC1=C[C@@H]2[C@@H]3Cc4ccc(OC)c(OCc5ccc(F)cc5)c4[C@]2(CCN3C)CC1=O`, the Ratio was 4.22.

In the case of `COC1=C[C@@H]2[C@@H]3Cc4ccc(OC)c(OCc5cccc(C#N)c5)c4[C@]2(CCN3C)CC1=O`, the Ratio was 4.28.

For `COC1=C[C@@H]2[C@@H]3Cc4ccc(OC)c(OCc5cn(Cc6c(Cl)cccc6Cl)nn5)c4[C@]2(CCN3C)CC1=O`, the Ratio was 3.44.

`COC1=C[C@@H]2[C@@H]3Cc4ccc(OC)c(OCc5ccccc5[N+](=O)[O-])c4[C@]2(CCN3C)CC1=O` showed a Ratio of 4.7.

`COC1=C[C@@H]2[C@@H]3Cc4ccc(OC)c(OCc5cccc(C)c5)c4[C@]2(CCN3C)CC1=O` gave a Ratio of 4.71.

`COC1=C[C@@H]2[C@@H]3Cc4ccc(OC)c(OCc5ccc([N+](=O)[O-])cc5)c4[C@]2(CCN3C)CC1=O` showed a Ratio of 4.37.

Work on `COC1=C[C@@H]2[C@@H]3Cc4ccc(OC)c(OCc5cn(Cc6ccc(Cl)cc6Cl)nn5)c4[C@]2(CCN3C)CC1=O` yielded a Ratio of 2.74.

Compound `COC1=C[C@@H]2[C@@H]3Cc4ccc(OC)c(OCc5cn(Cc6cccc([N+](=O)[O-])c6)nn5)c4[C@]2(CCN3C)CC1=O` has a Ratio of 3.17.

`COC1=C[C@@H]2[C@@H]3Cc4ccc(OC)c(OCc5cn(Cc6ccc([N+](=O)[O-])cc6)nn5)c4[C@]2(CCN3C)CC1=O` gave a Ratio of 3.63.

`COC1=C[C@@H]2[C@@H]3Cc4ccc(OC)c(OCc5cn(Cc6ccccc6C#N)nn5)c4[C@]2(CCN3C)CC1=O` was tested, and the Ratio was 1.96.

`COC1=C[C@@H]2[C@@H]3Cc4ccc(OC)c(OCc5cn(Cc6ccccc6Cl)nn5)c4[C@]2(CCN3C)CC1=O` was tested, and the Ratio was 2.39.

`COC1=C[C@@H]2[C@@H]3Cc4ccc(OC)c(OCc5cn(Cc6ccccc6F)nn5)c4[C@]2(CCN3C)CC1=O` gave a Ratio of 3.13.

`COC1=C[C@@H]2[C@@H]3Cc4ccc(OC)c(OCc5ccccc5Br)c4[C@]2(CCN3C)CC1=O` was tested, and the Ratio was 5.03.

`COC1=C[C@@H]2[C@@H]3Cc4ccc(OC)c(OCc5cn(Cc6ccc(OC)cc6)nn5)c4[C@]2(CCN3C)CC1=O` showed a Ratio of 3.12.

Work on `COC1=C[C@@H]2[C@@H]3Cc4ccc(OC)c(OCc5cccc([N+](=O)[O-])c5)c4[C@]2(CCN3C)CC1=O` yielded a Ratio of 4.18.

Compound `COC1=C[C@@H]2[C@@H]3Cc4ccc(OC)c(OCc5cn(Cc6ccccc6)nn5)c4[C@]2(CCN3C)CC1=O` has a Ratio of 1.8.

`COC1=C[C@@H]2[C@@H]3Cc4ccc(OC)c(OCc5cn(Cc6ccc(Cl)cc6)nn5)c4[C@]2(CCN3C)CC1=O` gave a Ratio of 2.22.

Work on `COC1=C[C@@H]2[C@@H]3Cc4ccc(OC)c(OCc5cn(Cc6ccccc6Br)nn5)c4[C@]2(CCN3C)CC1=O` yielded a Ratio of 2.08.

`COC1=C[C@@H]2[C@@H]3Cc4ccc(OC)c(OCc5cn(Cc6ccccc6[N+](=O)[O-])nn5)c4[C@]2(CCN3C)CC1=O` gave a Ratio of 2.32.

With `COC1=C[C@@H]2[C@@H]3Cc4ccc(OC)c(OCc5cn(Cc6ccc(Br)cc6)nn5)c4[C@]2(CCN3C)CC1=O` the Ratio was 4.19.

With `COC1=C[C@@H]2[C@@H]3Cc4ccc(OC)c(OCc5ccc(Br)cc5)c4[C@]2(CCN3C)CC1=O` the Ratio was 4.82.

With `COC1=C[C@@H]2[C@@H]3Cc4ccc(OC)c(OCc5cccc(Br)c5)c4[C@]2(CCN3C)CC1=O` the Ratio was 4.51.

In the case of `COC1=C[C@@H]2[C@@H]3Cc4ccc(OC)c(OCc5cn(Cc6cccc(C#N)c6)nn5)c4[C@]2(CCN3C)CC1=O`, the Ratio was 2.86.

In the case of `COC1=C[C@@H]2[C@@H]3Cc4ccc(OC)c(OCc5cn(Cc6ccc(F)cc6)nn5)c4[C@]2(CCN3C)CC1=O`, the Ratio was 1.98.

From ChEMBL document CHEMBL2069225, “Design, synthesis and molecular docking studies of sinomenine derivatives” (Bioorg Med Chem Lett, 2012)
